Results: patent US6875775B2, “Triphenylalkene derivatives and their use as selective estrogen receptor modulators” (Hormos Medical Oy LTD, priority 1999, dated 2005)
Read-outs that look alike come from different tables or passages of the source.

Legend:
[1] = tested on: MCF-7 cells; assay: cells; format: cell-based; details: for Maximal Cell Kill (% fraction of dead cells) / cytotoxicity at 10 µM: 10 μmol/l; for Maximal Agonism (% of E2) / Emax: maximal growth stimulus at any concentration, 4 days; for cytotoxicity at 10 µM / inhibition at 1 µM / Emax: Homo sapiens, MCF7, 96 h; for cytotoxicity at 10 µM: read-out: Maximal Cell Kill (% fraction of dead cells); for inhibition at 1 µM: read-out: Antagonism at 1 μM (% of full antagonism); for Emax: read-out: Maximal Agonism (% of E2); for Killing of MCF-7 cells at the highest investigated concentration (in words): 10 μM, compounds with weak hormonal activity
Protocol: Evaluation of Estrogenic and Antiestrogenic Properties of Compounds in MCF-7 Cell Growth Experiments in Vitro
For experiments involving hormone or anti-hormone treatment, the cells in exponential growth phase were precultivated in the absence of estradiol for one day. […] After the incubation period the medium was removed. The exposure to study drugs was started immediately by adding fresh medium with 5% stripped serum. Half of the cells were grown with estradiol, half without estradiol. Study compounds (dissolved in ethanol in 0.01 M concentration and diluted with the growth medium as appropriate) were added. The final concentrations of the compounds were 1, 10, and 100 nM, and 1 and 10 μM. The cells were incubated for four days.
This method allows evaluation of estrogenicity based on the ability of the compounds to stimulate the growth of the estrogen-dependent cells in the absence of estradiol.
Estrogenicity was estimated by comparing the maximal growth stimulus (at any concentration) of study compound as percent from growth stimulus by estradiol (100% stimulus). […] At high concentrations molecules may also show toxicity. Toxicity was estimated as the fraction of dead cells (i.e. 100% means that all cells have died during the exposure).

[2] = Overall hormonal profile summarised from Tables 2, 3 and 4
[3] = tested on: DMBA-induced rat mammary gland cancer; assay: Antitumor activity in DMBA-induced rat mammary gland cancer model; format: in vivo; details: 3 mg/kg p.o. daily for 5 weeks
Protocol: Estimation of Antitumor Activity in Vivo
Antitumor activity was estimated by using DMBA (dimethylbenz[a] anthracene) model. One single peroral dose of DMBA (12 mg) initiates mammary gland carcinogenesis. New compounds were administered for 5 weeks when palpable tumors appeared. Size of the tumors and number of new tumors were carefully estimated once a week until termination. The model has been described in detail by Kangas et al, 1986. The growth of the tumors was measured once a week. All tumors were classified according to their growth properties to progressing, stable and regressing ones. Disappeared tumors were separately calculated. The tumors were considered to be progressing, if the tumor volume grew more than 8-fold during the 5 weeks dosing period, and regressing if the tumor volume decreased to one fourth or less from the volume in the beginning. If tumor volume changed less or remained unchanged, the tumors were considered to be stable.

Structure (SMILES)	cytotoxicity at 10 µM ([1]; With estradiol (E2))	cytotoxicity at 10 µM ([1]; Without estradiol (E2))	inhibition at 1 µM ([1]; With estradiol (E2))	Emax ([1]; Without estradiol (E2))	also measured
CCCCN(C)C(=O)CCCCCCCCCC[C@@H]1Cc2cc(O)ccc2[C@H]2CC[C@]3(C)[C@@H](O)CC[C@H]3[C@H]12 [ICI 164,384, reference compound]	–	–	–	–	Antagonism at 1 μM (% of full antagonism) ([1]; With estradiol (E2)): 100 % of full antagonism; Maximal Cell Kill (% fraction of dead cells) ([1]; With estradiol (E2)): 100 % fraction of dead cells; Maximal Cell Kill (% fraction of dead cells) ([1]; Without estradiol (E2)): 100 % fraction of dead cells; Maximal Agonism (% of E2) ([1]; Without estradiol (E2)): 9 % of E2
ClCCOc1ccc(/C(=C(/CCCl)c2ccc(Cl)cc2)c2ccc(Cl)cc2)cc1 [No. 6, (E)-4-Chloro-1-[4-(2-chloroethoxy)phenyl]-1,2-bis(4-chlorophenyl)-but-1-ene]	40%	47%	16%	0%	–
OCC(O)COc1ccc(/C(=C(/CCCl)c2ccccc2)c2ccc(Cl)cc2)cc1 (stereo not shown) [No. 10, (E)-3-{4-[4-Chloro-1-(4-chlorophenyl)-2-phenyl-but-1-enyl]phenoxy}propane-1,2-diol]	35%	7%	0%	34%	Estrogenic and antiestrogenic action (in words) [2]: weak estrogenic and no antiestrogenic action
ClCCOCCOc1ccc(/C(=C(/CCCl)c2ccccc2)c2ccc(Cl)cc2)cc1 [No. 14]	–	–	–	–	Antagonism at 1 μM (% of full antagonism) ([1]; With estradiol (E2)): 27 % of full antagonism; Maximal Cell Kill (% fraction of dead cells) ([1]; With estradiol (E2)): 57 % fraction of dead cells; Maximal Cell Kill (% fraction of dead cells) ([1]; Without estradiol (E2)): 10 % fraction of dead cells; Maximal Agonism (% of E2) ([1]; Without estradiol (E2)): 12 % of E2
Fc1ccc(/C(=C(\CCCl)c2ccccc2)c2ccc(OCCOCCCl)cc2)cc1 [No. 15]	–	–	–	–	Antagonism at 1 μM (% of full antagonism) ([1]; With estradiol (E2)): 5 % of full antagonism; Maximal Cell Kill (% fraction of dead cells) ([1]; With estradiol (E2)): 9 % fraction of dead cells; Maximal Cell Kill (% fraction of dead cells) ([1]; Without estradiol (E2)): 82 % fraction of dead cells; Maximal Agonism (% of E2) ([1]; Without estradiol (E2)): 74 % of E2
OCCOc1ccc(C(=C(CCCl)c2ccccc2)c2ccc(OCCO)cc2)cc1 [No. 16, 2-(4-{4-Chloro-1-[4-(2-hydroxyethoxy)phenyl]-2-phenyl-but-1-enyl}phenoxy)1-ethanol]	–	–	–	–	Killing of MCF-7 cells at the highest investigated concentration (in words) [1]: kill MCF-7 cells (human breast cancer cells) effectively
OCCOc1cccc(/C(=C(/CCCl)c2ccccc2)c2ccccc2)c1 [No. 18, (Z)-2-[3-(4-Chloro-1,2-diphenyl-but-1-enyl)phenoxy]ethanol]	–	–	–	30%	Estrogenic and antiestrogenic action (in words) [2]: weak estrogenic and no antiestrogenic action
ClCC/C(=C(\c1ccccc1)c1ccc(OCCn2ccnc2)cc1)c1ccccc1 [No. 21, (Z)-1-{2-[4-(4-Chloro-1,2-diphenyl-but-1-enyl)phenoxy]ethyl}-1H-imidazole]	91%	80%	0%	5%	–
CN(CCO)CCOc1ccc(/C(=C(/CCCl)c2ccccc2)c2ccccc2)cc1 [No. 22, (Z)-2-({2-[4-(4-Chloro-1,2-diphenyl-but-1-enyl)phenoxy]ethyl}methylamino)ethanol]	41%	15%	12%	1%	–
CN(C)CCOc1ccc(/C(=C(/CCCl)c2ccc(F)cc2)c2ccccc2)cc1 [No. 25, (Z)-(2-{4-[4-Chloro-2-(4-fluorophenyl)-1-phenylbut-1-enyl]phenoxy}ethyl)-dimethylamine]	–	–	–	–	Estrogenic and antiestrogenic action (in words) [2]: weak estrogenic and no antiestrogenic action
COc1ccc(/C(=C(\CCCl)c2ccc(Cl)cc2)c2ccc(OCCN(C)C)cc2)cc1 [No. 26, (Z)-(2-{4-[4-Chloro-2-(4-chlorophenyl)-1-(4-methoxyphenyl)but-1-enyl]phenoxy}-ethyl)dimethylamine]	–	–	–	–	Killing of MCF-7 cells at the highest investigated concentration (in words) [1]: kill MCF-7 cells (human breast cancer cells) effectively
COc1ccc(/C(=C(/CCCl)c2ccc(Cl)cc2)c2ccc(OCCN(C)C)cc2)cc1 [No. 27, (E)-(2-{4-[4-Chloro-2-(4-chlorophenyl)-1-(4-methoxyphenyl)but-1-enyl]phenoxy}-ethyl)dimethylamine]	–	–	–	–	Killing of MCF-7 cells at the highest investigated concentration (in words) [1]: kill MCF-7 cells (human breast cancer cells) effectively
COc1cccc(/C(CCCl)=C(/c2ccccc2)c2ccc(OCCN3CCCCC3)cc2)c1 [No. 28, (Z)-1-(2-{4-[4-Chloro-2-(3-methoxyphenyl)-1-phenylbut-1-enyl]phenoxy}-ethyl)piperidine]	92%	86%	18%	3%	–
COc1ccccc1/C(CCCl)=C(/c1ccccc1)c1ccc(OCCN2CCCCC2)cc1 [No. 30, (Z)-1-(2-{4-[4-Chloro-2-(2-methoxyphenyl)-1-phenylbut-1-enyl]phenoxy}-ethyl)piperidine]	92%	91%	4%	5%	–
CN(C)CCSc1ccc(/C(=C(/CCCl)c2ccccc2)c2ccccc2)cc1 [No. 32, (Z)-1-[4-(2-Dimethylaminoethylsulfanyl)phenyl]-1,2-diphenyl-4-chloro-but-1-ene]	90%	86%	0%	11%	Estrogenic and antiestrogenic action (in words) [2]: weak estrogenic and no antiestrogenic action
OCCCOc1ccc(/C(=C(/CCCl)c2ccccc2)c2ccccc2)cc1 [No. 35, (Z)-3-[4-(4-Chloro-1,2-diphenylbut-1-enyl)phenoxy]propan-1-ol]	–	–	–	45%	–
OCCSc1ccc(/C(=C(/CCCl)c2ccccc2)c2ccccc2)cc1 [No. 36, (Z)-2-[4-(4-Chloro-1,2-diphenyl-but-1-enyl)-phenylsulfanyl]ethanol]	37%	17%	13%	8%	Estrogenic and antiestrogenic action (in words) [2]: weak estrogenic and no antiestrogenic action
ClCC/C(=C(\c1ccccc1)c1ccc(OCCN2CCCCC2)cc1)c1ccccc1Cl [No. 38, (Z)-1-(2-{4-[4-Chloro-2-(2-chlorophenyl)-1-phenylbut-1-enyl]phenoxy}-ethyl)piperidine]	100%	99%	68%	0%	–
Oc1cccc(/C(=C(\CCCl)c2ccccc2)c2ccc(OCCn3ccnc3)cc2)c1 [No. 39, (E)-3-{4-Chloro-1-[4-(2-imidazol-1-yl-ethoxy)phenyl]-2-phenyl-but-1-enyl}-phenol]	78%	68%	17%	0%	Killing of MCF-7 cells at the highest investigated concentration (in words) [1]: kill MCF-7 cells (human breast cancer cells) effectively
Oc1cccc(/C(=C(/CCCl)c2ccccc2)c2ccc(OCCn3ccnc3)cc2)c1 [No. 40, (Z)-3-{4-Chloro-1-[4-(2-imidazol-1-yl-ethoxy)phenyl]-2-phenyl-but-1-enyl}-phenol]	46%	63%	3%	0%	Killing of MCF-7 cells at the highest investigated concentration (in words) [1]: kill MCF-7 cells (human breast cancer cells) effectively
OCCNc1ccc(/C(=C(/CCCl)c2ccccc2)c2ccccc2)cc1 [No. 41, (Z)-2-[4-(4-Chloro-1,2-diphenyl-but-1-enyl)phenylamino]ethanol]	47%	0%	10%	54%	–
CCC(O)(CC)COc1ccc(/C(=C(/CCCl)c2ccccc2)c2ccccc2)cc1 [No. 45, (Z)-3-[4-(4-Chloro-1,2-diphenylbut-1-enyl)phenoxymethyl]pentan-3-ol]	19%	6%	3%	15%	–
CCC(CO)Oc1ccc(/C(=C(/CCCl)c2ccccc2)c2ccccc2)cc1 (stereo not shown) [No. 46, (Z)-2-[4-(4-Chloro-1,2-diphenylbut-1-enyl)phenoxy]butan-1-ol]	51%	15%	23%	18%	–
CC/C(=C(\c1ccccc1)c1ccc(OCCN(C)C)cc1)c1ccccc1 [Tamoxifen, reference compound]	–	–	–	–	Disappeared tumors (per cent of total tumor number) [3]: 0%; Growing tumors (per cent of total tumor number) [3]: 36%; Regressing tumors (per cent of total tumor number) [3]: 8%; Stable tumors (per cent of total tumor number) [3]: 56%
CN(C)CCOc1ccc(/C(=C(/CCCl)c2ccccc2)c2ccccc2)cc1 [Toremifene, reference compound]	–	–	–	–	Disappeared tumors (per cent of total tumor number) [3]: 10%; Growing tumors (per cent of total tumor number) [3]: 31%; Regressing tumors (per cent of total tumor number) [3]: 11%; Stable tumors (per cent of total tumor number) [3]: 51%
